The results in this text go back to ChEMBL document CHEMBL1201862, “PubChem BioAssay data set” (2004).

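48-hour exposure; five concentrations; linearly interpolated endpoints. GI50: concentration for 50% inhibition of growth.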 The source made the active and inactive calls. Cut-off read from the data, not from the text of the source: active = GI50 up to about 1.1 µM and inactive = higher.

Among the test systems are A549; ACHN; HCT-116; HL-60; HOP-62; K562; LOX IMVI; M14; MOLT-4; OVCAR-3; OVCAR-8; SK-MEL-28; SR; SW-620; U-251; UACC-62; DU-145; NCI/ADR-RES; PC-3.
What all share (assay): NCI-60 cell line screen, 48 h

As for `C1OC1CN1CCN(CC2CO2)CC1` (stereo not given), the GI50 in the assay with A549 was 17.5 µM (inactive); in the assay on ACHN, 12.4 µM (inactive); with HCT-116, 72.8 µM (inactive); in the assay with HL-60 it was 4.85 µM (inactive); with HOP-62 it was 24.2 µM (inactive); in the assay on K562 it was 52.5 µM (inactive). The GI50 in the assay on LOX IMVI was 44.1 µM (inactive); in the assay with M14 it was 54.6 µM (inactive); in the assay with MOLT-4 it was 3.28 µM (inactive); in the assay with OVCAR-3, > 100 µM (inactive); in the assay with OVCAR-8 it was > 75.7 µM (inactive); with SK-MEL-28 it was > 100 µM (inactive). Also, the GI50 is 2.42 µM (inactive) in the assay with SR, > 100 µM (inactive) with SW-620, 45.4 µM (inactive) in the assay with U-251 and 8.87 µM (inactive) with UACC-62.
Take `Fc1cccc2c1cc1ccc3cccc4ccc2c1c34`: the GI50 in the assay with A549, with ACHN, with HCT-116, in the assay with HL-60, in the assay with HOP-62 and with K562 was > 100 µM (inactive) throughout. Further, the GI50 in the assay on LOX IMVI, in the assay on M14, with MOLT-4, with OVCAR-3, in the assay with OVCAR-8 and in the assay on SK-MEL-28 was > 100 µM (inactive) throughout. In addition, the GI50 in the assay on SR is 60.5 µM (inactive); in the assay on SW-620, > 100 µM (inactive); in the assay on U-251, > 100 µM (inactive); with UACC-62, > 100 µM (inactive).
With `C/C(=C1/CCCC2(N=NCC2c2ccccc2)C1=O)c1ccccc1` (stereo not given), the GI50 in the assay with A549 was 20.4 µM (inactive); in the assay on ACHN it was 31.8 µM (inactive); in the assay with HCT-116, 18.7 µM (inactive); in the assay with HL-60 it was 8.95 µM (inactive); in the assay with K562, 12 µM (inactive); in the assay with LOX IMVI it was 32.8 µM (inactive). Further, the GI50 with M14 was 13.8 µM (inactive); in the assay on MOLT-4, 14.4 µM (inactive); in the assay with OVCAR-3, 17.6 µM (inactive); in the assay on OVCAR-8, 21.3 µM (inactive); in the assay on SK-MEL-28, 26.9 µM (inactive); in the assay on SR, 14 µM (inactive). In addition, the figures for the GI50 in the assay with SW-620, in the assay with U-251 and with UACC-62 were 69.8 µM (inactive), 23.8 µM (inactive) and 16.3 µM (inactive), respectively.
Turning to `COc1cc2[nH]c(=O)c3cc(C)cc4c(Cl)nc(c1OC)c2c43`, the GI50 was 45.7 µM (inactive) with A549; 40.6 µM (inactive) with ACHN; 61.8 µM (inactive) with DU-145; 40.1 µM (inactive) in the assay on HCT-116; 18.8 µM (inactive) in the assay on HL-60; 23.6 µM (inactive) with HOP-62. Also, the GI50 was 67.8 µM (inactive) in the assay on K562; 53.2 µM (inactive) in the assay with LOX IMVI; > 100 µM (inactive) in the assay with M14; 42.8 µM (inactive) in the assay with MOLT-4; > 100 µM (inactive) in the assay on NCI/ADR-RES; > 100 µM (inactive) in the assay with OVCAR-3. The GI50 is 95.9 µM (inactive) in the assay on OVCAR-8; > 100 µM (inactive) with PC-3; > 100 µM (inactive) in the assay with SK-MEL-28; > 100 µM (inactive) with SW-620; 38.6 µM (inactive) in the assay on U-251; 28.3 µM (inactive) in the assay on UACC-62.
As to `O=C1NC2=C(CCCCC/C2=N\O)C12CCCCCC2`, the GI50 in the assay on A549, in the assay on ACHN, in the assay on HCT-116, in the assay on HL-60, in the assay with HOP-62 and with K562 was > 100 µM (inactive) each time. The GI50 in the assay with LOX IMVI, in the assay with M14, with MOLT-4, in the assay with OVCAR-3, in the assay with OVCAR-8 and in the assay with SK-MEL-28 was > 100 µM (inactive) each time. The GI50 with SR, in the assay on SW-620, in the assay with U-251 and with UACC-62 was > 100 µM (inactive) each time.
Turning to `O=C(CCC(=O)Nc1ccc(Cl)cc1)CC(=O)c1ccc2ccccc2c1`, the GI50 with A549, in the assay with ACHN, in the assay on HCT-116, in the assay with HL-60, with HOP-62 and with K562 was > 100 µM (inactive) throughout. The GI50 in the assay with LOX IMVI, in the assay with M14, with MOLT-4, with OVCAR-3, with OVCAR-8 and in the assay with SK-MEL-28 was > 100 µM (inactive) throughout. For the same molecule, the GI50 with SR is > 100 µM (inactive); in the assay on SW-620, > 100 µM (inactive); in the assay on U-251 it was > 100 µM (inactive); in the assay with UACC-62, 32.7 µM (inactive).
Consider `O=C1C/C(Br)=C\c2ccccc2-c2ccccc21`, for which the GI50 is 8.26 µM (inactive) in the assay with A549; 1.91 µM (inactive) in the assay with ACHN; 1.8 µM (inactive) in the assay with HCT-116; 1.71 µM (inactive) in the assay on HL-60; 3.05 µM (inactive) in the assay with HOP-62; 1.06 µM (active) in the assay on K562. Besides, the GI50 in the assay on LOX IMVI is 0.869 µM (active); in the assay with M14 it was 2.07 µM (inactive); in the assay with MOLT-4 it was 2.16 µM (inactive); with OVCAR-3, 2.45 µM (inactive); in the assay on OVCAR-8, 2.19 µM (inactive); with SK-MEL-28 it was 1.05 µM (active). In addition, the GI50 in the assay on SR is 0.405 µM (active); in the assay with SW-620, 1.39 µM (inactive); in the assay with U-251, 2.51 µM (inactive); in the assay on UACC-62 it was 2.23 µM (inactive).
As for `CC#COP(=O)(OCC)OCC`, the GI50 is > 100 µM (inactive) in the assay with A549; > 100 µM (inactive) with ACHN; > 100 µM (inactive) in the assay with HCT-116; 17.7 µM (inactive) in the assay on HL-60; > 100 µM (inactive) with HOP-62; > 100 µM (inactive) in the assay on K562. The GI50 in the assay on LOX IMVI was > 100 µM (inactive); in the assay with M14, > 100 µM (inactive); in the assay with MOLT-4, > 100 µM (inactive); in the assay with OVCAR-3, > 100 µM (inactive); with OVCAR-8, > 100 µM (inactive); in the assay with SR, 64.6 µM (inactive). The GI50 with SW-620, with U-251 and in the assay with UACC-62 was > 100 µM (inactive) in each case.
For `CCOC(=O)N(c1ccccc1)c1cc(=O)n2ccccc2n1`, the GI50 with A549, with ACHN, with DU-145, with HCT-116, in the assay with HL-60 and with HOP-62 was > 100 µM (inactive) in each case. The GI50 with K562, with LOX IMVI, with MOLT-4, with NCI/ADR-RES, in the assay on OVCAR-3 and with OVCAR-8 was > 100 µM (inactive) throughout. For the same molecule, the GI50 in the assay with SK-MEL-28, in the assay on SR, in the assay with SW-620, in the assay on U-251 and with UACC-62 was > 100 µM (inactive) throughout.
For `O=C1C=C(O)C(=Cc2c(O)cc(O)cc2O)C(O)=C1`, the GI50 with A549, in the assay on HCT-116, with HL-60, in the assay on HOP-62, in the assay on K562 and in the assay on LOX IMVI was > 100 µM (inactive) throughout. The GI50 with M14, in the assay with MOLT-4, in the assay with OVCAR-3, in the assay with OVCAR-8, in the assay on SR and in the assay with SW-620 was > 100 µM (inactive) each time. For the same molecule, the GI50 with U-251 and in the assay on UACC-62 was > 100 µM (inactive) throughout.
As for `C#CCNC(=O)NCCCC(NC(C)=O)C(=O)NCc1ccccc1` (stereo not given), the GI50 with A549, in the assay with ACHN, with HCT-116, in the assay with HL-60, in the assay with HOP-62 and with K562 was > 100 µM (inactive) in each case. The GI50 in the assay on LOX IMVI, with M14, in the assay with MOLT-4, with OVCAR-3, with OVCAR-8 and in the assay with SK-MEL-28 was > 100 µM (inactive) throughout. Further, the GI50 in the assay with SR, in the assay on SW-620, in the assay with U-251 and in the assay with UACC-62 was > 100 µM (inactive) each time.
For `CCCC(=O)Nc1ccc(O)c2c1C1CCCCCC21` (stereo not given), the GI50 is > 100 µM (inactive) in the assay on A549; 71.8 µM (inactive) in the assay with ACHN; 85.3 µM (inactive) in the assay on HCT-116; > 100 µM (inactive) in the assay with HL-60; > 100 µM (inactive) in the assay with HOP-62; 64.9 µM (inactive) with K562. For the same molecule, the GI50 in the assay with LOX IMVI was > 100 µM (inactive); in the assay with M14, > 100 µM (inactive); in the assay on MOLT-4, 56.9 µM (inactive); in the assay on OVCAR-8, > 100 µM (inactive); in the assay with SK-MEL-28 it was > 100 µM (inactive); in the assay on SR, 82.2 µM (inactive). For the same molecule, the GI50 in the assay on SW-620 is > 100 µM (inactive); in the assay on U-251, > 100 µM (inactive); with UACC-62, 64 µM (inactive).
